Reference: ChEMBL document CHEMBL6083259, “Discovery of quinazoline-benzothiazole derivatives as novel potent protease-activated receptor 4 antagonists with improved pharmacokinetics and low bleeding liability” (Eur J Med Chem, 2024)
Active and inactive are the calls of the source. No cut-off for these calls is given here.

What was measured:
[1] = target: T1, Proteinase-activated receptor 4 (Homo sapiens) (UniProt Q96RI0); experiment: Antagonist activity at PAR4 in human platelet rich plasma assessed as inhibition of gamma-PAR4 agonist peptide (AYPGKF-NH2)-induced platelet aggregation at 200 nM preincubated for 5 mins followed by peptide addition and measured after 5 mins by aggregometer relative to control; type: cell-based; settings: filed as antagonist, time 10.0 min
T1 sequence (whole entry): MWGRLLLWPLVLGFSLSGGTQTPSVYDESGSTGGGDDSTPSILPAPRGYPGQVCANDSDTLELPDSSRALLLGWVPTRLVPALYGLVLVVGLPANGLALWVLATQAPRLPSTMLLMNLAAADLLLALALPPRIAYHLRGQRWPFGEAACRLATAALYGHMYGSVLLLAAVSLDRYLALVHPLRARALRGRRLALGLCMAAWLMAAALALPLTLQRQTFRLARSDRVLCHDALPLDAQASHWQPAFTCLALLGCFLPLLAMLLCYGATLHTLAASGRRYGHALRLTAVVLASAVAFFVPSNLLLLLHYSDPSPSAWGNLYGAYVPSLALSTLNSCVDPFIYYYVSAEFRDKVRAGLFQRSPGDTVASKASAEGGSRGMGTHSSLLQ

[2] = target: T2, Proteinase-activated receptor 4 (Homo sapiens, UniProt Q96RI0); experiment: Antagonist activity at human PAR4 expressed in HEK293/Galpha15 cells assessed as inhibition of AYPGKF-NH2-induced calcium mobilization incubated for 30 mins by FLIPR assay; type: functional, cell-based
T2 sequence (Q96RI0 whole entry): T1 sequence (whole entry)

[3] = target: T3, Proteinase-activated receptor 1 (Homo sapiens, UniProt P25116); experiment: Antagonist activity at human PAR1 expressed in HEK293/Galpha15 cells assessed as inhibition of SFFLRR-NH2-induced calcium mobilization incubated for 30 mins by FLIPR assay; type: functional, cell-based
T3 sequence (P25116 whole entry): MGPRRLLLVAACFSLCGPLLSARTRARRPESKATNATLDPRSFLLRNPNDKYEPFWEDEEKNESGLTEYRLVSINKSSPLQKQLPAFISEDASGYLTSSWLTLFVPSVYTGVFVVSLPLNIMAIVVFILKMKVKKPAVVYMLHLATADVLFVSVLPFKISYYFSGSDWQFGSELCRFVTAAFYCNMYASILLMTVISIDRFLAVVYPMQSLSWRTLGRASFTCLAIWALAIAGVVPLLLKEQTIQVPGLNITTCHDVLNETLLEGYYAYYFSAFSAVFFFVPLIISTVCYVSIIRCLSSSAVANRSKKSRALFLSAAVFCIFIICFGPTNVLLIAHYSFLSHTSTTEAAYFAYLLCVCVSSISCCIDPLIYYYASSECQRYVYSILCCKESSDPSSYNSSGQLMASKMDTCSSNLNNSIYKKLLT

[4] = Antagonist activity at […] expressed in HEK293/Galpha15 cells assessed as inhibition of 2-furoyl-LIGRLO-NH2-induced calcium mobilization incubated for 30 mins by FLIPR assay; type: cell-based; settings: HEK293/Galpha15, 0.5 h
[5] = Metabolic stability in human liver microsomes assessed as half-life at 1 uM measured upto 120 mins in presence of NADPH by LC-MS/MS analysis; type: ADME, Microsome
[6] = Metabolic stability in rat liver microsomes assessed as half-life at 1 uM measured upto 120 mins in presence of NADPH by LC-MS/MS analysis; type: ADME, Microsome
Plasma [7] = experiment: Inhibition of […] peptide-induced platelet aggregation in human platelet rich plasma at 10 uM preincubated for 5 mins followed by peptide addition and measured after 5 mins by aggregometer; type: functional, cell-free; settings: time 10.0 min
Plasma [8] = experiment: Inhibition of thrombin-induced platelet aggregation in human platelet rich plasma at 10 uM preincubated for 5 mins followed by thrombin addition and measured after 5 mins by aggregometer; type: functional, cell-free; settings: time 10.0 min
Plasma [9] = experiment: Inhibition of SFFLLRN-NH2 peptide-induced platelet aggregation in human platelet rich plasma at 10 uM preincubated for 5 mins followed by peptide addition and measured after 5 mins by aggregometer; type: functional, cell-free
Plasma [10] = experiment: Inhibition of collagen-induced platelet aggregation in human platelet rich plasma at 10 uM preincubated for 5 mins followed by collagen addition and measured after 5 mins by aggregometer; type: functional, cell-free
Plasma [11] = experiment: Inhibition of ADP-induced platelet aggregation in human platelet rich plasma at 10 uM preincubated for 5 mins followed by ADP addition and measured after 5 mins by aggregometer; type: functional, cell-free
Plasma [12] = experiment: Inhibition of U46619-induced platelet aggregation in human platelet rich plasma at 10 uM preincubated for 5 mins followed by U46619 addition and measured after 5 mins by aggregometer; type: functional, cell-free
[13] = Cytotoxicity against HEK293 cells assessed as reduction in cell viability incubated for 48 hrs by MTT assay; type: toxicity, cell-based; settings: human
[14] = Protein binding in human plasma at 10 uM incubated for 6 hrs by LC-MS/MS analysis; type: ADME, cell-free; settings: read-out: PPB (converted)
[15] = Protein binding in rat plasma at 10 uM incubated for 6 hrs by LC-MS/MS analysis; type: ADME, cell-free; settings: read-out: PPB (converted)
[16] = AUC (0 to last) in male Sprague-Dawley rat at 0.5 mg/kg, iv measured after 24 hrs by LC-MS/MS analysis; type: ADME, organism-based; settings: in vivo
[17] = Half-life in male Sprague-Dawley rat at 0.5 mg/kg, iv measured after 24 hrs by LC-MS/MS analysis; type: ADME, organism-based; settings: in vivo
[18] = Tmax in male Sprague-Dawley rat at 0.5 mg/kg, iv measured after 24 hrs by LC-MS/MS analysis; type: ADME, organism-based; settings: in vivo
[19] = Cmax in male Sprague-Dawley rat at 0.5 mg/kg, iv measured after 24 hrs by LC-MS/MS analysis; type: ADME, organism-based; settings: in vivo
[20] = Clearance in male Sprague-Dawley rat at 0.5 mg/kg, iv measured after 24 hrs by LC-MS/MS analysis; type: ADME, organism-based; settings: in vivo
[21] = AUC (0 to last) in male Sprague-Dawley rat at 2 mg/kg, po measured after 24 hrs by LC-MS/MS analysis; type: ADME, organism-based; settings: in vivo
[22] = Half-life in male Sprague-Dawley rat at 2 mg/kg, po measured after 24 hrs by LC-MS/MS analysis; type: ADME, organism-based; settings: in vivo
[23] = Tmax in male Sprague-Dawley rat at 2 mg/kg, po measured after 24 hrs by LC-MS/MS analysis; type: ADME, organism-based; settings: in vivo
[24] = Cmax in male Sprague-Dawley rat at 2 mg/kg, po measured after 24 hrs by LC-MS/MS analysis; type: ADME, organism-based; settings: in vivo
[25] = Clearance in male Sprague-Dawley rat at 2 mg/kg, po measured after 24 hrs by LC-MS/MS analysis; type: ADME, organism-based; settings: in vivo
[26] = Oral bioavailability in male Sprague-Dawley rat at 2 mg/kg measured after 24 hrs by LC-MS/MS analysis; type: ADME, organism-based; settings: in vivo
[27] = Toxicity in male C57BL/6 mouse assessed as prolongation of bleeding time at 10 mg/kg, po measured after 1.5 hrs by tail bleeding assay; type: organism-based; settings: in vivo
[28] = AUC (0 to last) in iv dosed male Sprague-Dawley rat measured after 24 hrs by LC-MS/MS analysis; type: ADME, organism-based; settings: in vivo
[29] = Half-life in iv dosed male Sprague-Dawley rat measured after 24 hrs by LC-MS/MS analysis; type: ADME, organism-based; settings: in vivo
[30] = Tmax in iv dosed male Sprague-Dawley rat measured after 24 hrs by LC-MS/MS analysis; type: ADME, organism-based; settings: in vivo
[31] = Cmax in iv dosed male Sprague-Dawley rat measured after 24 hrs by LC-MS/MS analysis; type: ADME, organism-based; settings: in vivo
[32] = Clearance in iv dosed male Sprague-Dawley rat measured after 24 hrs by LC-MS/MS analysis; type: ADME, organism-based; settings: in vivo
[33] = AUC (0 to last) in po dosed male Sprague-Dawley rat measured after 24 hrs by LC-MS/MS analysis; type: ADME, organism-based; settings: in vivo
[34] = Half-life in po dosed male Sprague-Dawley rat measured after 24 hrs by LC-MS/MS analysis; type: ADME, organism-based; settings: in vivo
[35] = Tmax in po dosed male Sprague-Dawley rat measured after 24 hrs by LC-MS/MS analysis; type: ADME, organism-based; settings: in vivo
[36] = Oral bioavailability in male Sprague-Dawley rat measured after 24 hrs by LC-MS/MS analysis; type: ADME, organism-based; settings: in vivo
[37] = Cmax in po dosed male Sprague-Dawley rat measured after 24 hrs by LC-MS/MS analysis; type: ADME, organism-based; settings: in vivo
[38] = Antagonist activity at PAR4 in mouse washed platelets assessed as inhibition of gamma-PAR4 agonist peptide (AYPGKF-NH2)-induced platelet aggregation preincubated for 5 mins followed by peptide addition and measured after 5 mins by aggregometer

SMILES | inhibition [1] [%] | IC50 [2] [µM] | IC50 [3] [µM] | IC50 [4] [µM] | half-life at 1 µM [5] [h] | half-life at 1 µM [6] [h] | inhibition (Plasma [7]) | inhibition (Plasma [8]) | IC50 (Plasma [9]) [µM] | IC50 (Plasma [10]) [µM] | IC50 (Plasma [11]) [µM] | IC50 (Plasma [12]) [µM] | IC50 at 48 h [13] [µM] | fraction unbound at 6 h, 10 µM [14] | fraction unbound at 6 h, 10 µM [15] | AUC(0-t) at 24 h [16] [µg·h/mL] | half-life [17] [h] | Tmax [18] [min] | Cmax [19] [µg/mL] | clearance [20] [L/h/kg] | further results
COCc1ncc2c(-c3nc4cc(F)c(OCCOC(=O)Nc5cc(F)cc(C#N)c5)cc4s3)cc(C)cc2n1 | 90.3 | 0.0056 | > 3.16 | > 1 | 0.747 | 2.12 | Active | Active | > 10 | > 10 | > 10 | > 10 | > 20 | 0.001 | 0.0011 | 0.95 | 2.2 | 4.8 | 0.944 | 0.57 | AUC(0-t) at 24 h [21]: 0.488 µg·h/mL; half-life [22]: 1.78 h; Tmax [23]: 1 h; Cmax [24]: 0.146 µg/mL; CL/F [25]: 3.92 L/h/kg; bioavailability [26]: 13.2%
COc1ncc2c(-c3nc4cc(F)c5c(c4s3)C[C@H](COC(=O)Nc3cccc(C#N)c3)O5)cc(C)cc2n1 | 91.2 | 0.00172 | > 3.16 | > 1 | 4.16 | 1.49 | Active | Active | > 10 | > 10 | > 10 | > 10 | > 20 | 0.0005 | 0.0002 | 0.636 | 5.13 | 4.8 | 0.394 | 0.768 | AUC(0-t) at 24 h [21]: 1.22 µg·h/mL; half-life [22]: 5.16 h; Tmax [23]: 1.67 h; Cmax [24]: 0.214 µg/mL; CL/F [25]: 1.52 L/h/kg; bioavailability [26]: 50.5%; Activity [27]: Non-toxic
COc1ncc2c(-c3nc4cc(F)c5c(c4s3)C[C@H](COC(=O)Nc3cc(F)cc(C#N)c3)O5)cc(C)cc2n1 | 94.7 | 0.00096 | > 3.16 | > 1 | 4.71 | 1.73 | Active | Active | > 10 | > 10 | > 10 | > 10 | > 20 | 0.0004 | 0.0001 | 0.808 | 6.89 | 4.8 | 0.519 | 0.588 | AUC(0-t) at 24 h [21]: 0.865 µg·h/mL; half-life [22]: 7.05 h; Tmax [23]: 1 h; Cmax [24]: 0.17 µg/mL; CL/F [25]: 2.26 L/h/kg; bioavailability [26]: 27.3%; Activity [27]: Non-toxic
COc1cc(Cl)c2nc(-c3cc(C)cc4c(=O)n(C)cnc34)sc2c1 | 94.5 | – | > 3.16 | > 1 | 0.71 | 0.532 | – | – | – | – | – | – | > 20 | – | – | – | – | – | – | – | AUC(0-t) at 24 h [28]: 0.288 µg·h/mL; half-life [29]: 1.4 h; Tmax [30]: 4.8 min; Cmax [31]: 0.571 µg/mL; clearance [32]: 3.46 L/h/kg; AUC(0-t) at 24 h [33]: 0.032 µg·h/mL; half-life [34]: 2.16 h; Tmax [35]: 2.83 h; bioavailability [36]: 3.71%; Cmax [37]: 0.0064 µg/mL; Activity [27]: Non-toxic; IC50 [38]: 0.084 µM
